Among the data in patent publication US7446104B2, “Phenylalkynes” (Ortho-McNeil Pharmaceutical, Inc., priority 2001, dated 2008) are Ki values, retold here.

For the assay, the target named is T1, human histamine H3 receptor (Homo sapiens, UniProt Q9Y5N1).
T1 construct: One microgram of supercoiled H3 receptor cDNA was added to the cells and mixed; expressed in transfected cells; membranes prepared from cell pellets
Nature of the assay: [3H]-N-methylhistamine binding. As to conditions: membranes of histamine H3 receptor-expressing SK-N-MC cells; 0.8 nM [3H]-N-methylhistamine; 45 min at 25° C.; read-out: Ki. The protocol: Transfection of Cells with Human Histamine Receptor
A 10 cm tissue culture dish with a confluent monolayer of SK-N-MC cells was split two days prior to transfection. Using sterile technique the media were removed and the cells were detached from the dish by the addition of trypsin. One fifth of the cells were then placed onto a new 10 cm dish. Cells were grown in a 37° C. incubator with 5% CO2 in Minimal Essential Media Eagle with 10% Fetal Bovine Serum. After two days cells were approximately 80% confluent. These were removed from the dish with trypsin and pelleted in a clinical centrifuge. The pellet was then re-suspended in 400 μL complete media and transferred to an electroporation cuvette with a 0.4 cm gap between the electrodes. One microgram of supercoiled H3 receptor cDNA was added to the cells and mixed. The voltage for the electroporation was set at 0.25 kV, the capacitance was set at 960 μF. After electroporation the cells were diluted into 10 mL complete media and plated onto four 10 cm dishes. Because of the variability in the efficiency of electroporation, four different concentrations of cells were plated. The ratios used were; 1:20, 1:10, 1:5, with the remainder of the cells being added to the fourth dish. The cells were allowed to recover for 24 hours before adding the selection media (complete media with 600 μg/mL G418). After 10 days dishes were analyzed for surviving colonies of cells. Dishes with well isolated colonies were used. Cells from individual colonies were isolated and tested. SK-N-MC cells were used because they give efficient coupling for inhibition of adenylate cyclase. The clones that gave the most robust inhibition of adenylate cyclase in response to histamine were used for further study.
[^3H]-N-methylhistamine Binding
Cell pellets from histamine H3 receptor-expressing SK-N-MC cells were homogenized in 20 mM Tris HCl/0.5 mM EDTA. Supernatants from a 800 g spin were collected, recentrifuged at 30,000 g for 30 min. Pellets were re-homogenized in 50 mM Tris/5 mM EDTA (pH 7.4). Membranes were incubated with 0.8 nM [^3H]-N-methylhistamine plus/minus test compounds for 45 min at 25° C. and harvested by rapid filtration over GF/C glass fiber filters (pretreated with 0.3% polyethylenimine) followed by four washes with ice cold buffer. Filters were dried, added to 4 mL scintillation cocktail and then counted on a liquid scintillation counter. Non-specific binding was defined with 10 μM histamine.

T1 sequence (Q9Y5N1 whole entry): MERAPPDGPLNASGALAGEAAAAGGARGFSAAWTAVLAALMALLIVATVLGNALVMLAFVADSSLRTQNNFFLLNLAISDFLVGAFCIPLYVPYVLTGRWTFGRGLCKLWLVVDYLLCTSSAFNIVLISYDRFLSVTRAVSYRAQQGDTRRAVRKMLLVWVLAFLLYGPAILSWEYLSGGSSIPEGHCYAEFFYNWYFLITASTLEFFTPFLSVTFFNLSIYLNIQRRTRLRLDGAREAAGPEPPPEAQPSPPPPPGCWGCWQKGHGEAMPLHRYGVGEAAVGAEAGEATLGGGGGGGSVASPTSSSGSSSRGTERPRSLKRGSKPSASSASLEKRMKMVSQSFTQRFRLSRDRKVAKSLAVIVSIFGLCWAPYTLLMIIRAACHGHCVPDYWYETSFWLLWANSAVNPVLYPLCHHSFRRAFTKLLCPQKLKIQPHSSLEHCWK

Regarding `C(#Cc1cccc(CN2CCCCCCCCCCCC2)c1)CCN1CCCCC1` [Example 56, 1-[3-(4-Piperidin-1-yl-but-1-ynyl)-benzyl]-azacyclotridecane], the Ki worked out at 13 nM.

The term Ki denotes the equilibrium dissociation constant of an inhibitor or competing ligand from its target.
